This passage reports IC50 results from article PMC12229235 (Science signaling, 2024).

In the assay the target is AKT3 (Homo sapiens, UniProt Q9Y243). The assay is described as follows: LANCE Ultra TR-FRET kinase assay with Ulight-crosstide substrate. Type of assay: biochemical. On the technique in general: In TR-FRET formats the signal depends on donor and acceptor labels being close together.
AKT3, sequence (Q9Y243 2-479): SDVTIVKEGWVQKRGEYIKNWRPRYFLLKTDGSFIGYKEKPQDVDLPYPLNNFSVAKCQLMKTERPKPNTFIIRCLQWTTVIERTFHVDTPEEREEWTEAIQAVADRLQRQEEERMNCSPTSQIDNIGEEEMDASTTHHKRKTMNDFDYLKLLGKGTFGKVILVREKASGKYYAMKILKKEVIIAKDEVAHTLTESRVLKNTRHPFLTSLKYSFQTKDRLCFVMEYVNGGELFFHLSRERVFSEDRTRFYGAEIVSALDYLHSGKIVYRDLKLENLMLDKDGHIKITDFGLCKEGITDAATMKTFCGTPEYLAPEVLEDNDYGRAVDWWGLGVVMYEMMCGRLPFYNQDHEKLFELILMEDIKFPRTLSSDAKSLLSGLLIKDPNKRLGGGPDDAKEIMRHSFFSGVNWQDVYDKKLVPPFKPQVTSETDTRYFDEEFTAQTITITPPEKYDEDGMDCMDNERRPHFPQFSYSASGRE
AKT3, sequence (O15530 whole entry partner): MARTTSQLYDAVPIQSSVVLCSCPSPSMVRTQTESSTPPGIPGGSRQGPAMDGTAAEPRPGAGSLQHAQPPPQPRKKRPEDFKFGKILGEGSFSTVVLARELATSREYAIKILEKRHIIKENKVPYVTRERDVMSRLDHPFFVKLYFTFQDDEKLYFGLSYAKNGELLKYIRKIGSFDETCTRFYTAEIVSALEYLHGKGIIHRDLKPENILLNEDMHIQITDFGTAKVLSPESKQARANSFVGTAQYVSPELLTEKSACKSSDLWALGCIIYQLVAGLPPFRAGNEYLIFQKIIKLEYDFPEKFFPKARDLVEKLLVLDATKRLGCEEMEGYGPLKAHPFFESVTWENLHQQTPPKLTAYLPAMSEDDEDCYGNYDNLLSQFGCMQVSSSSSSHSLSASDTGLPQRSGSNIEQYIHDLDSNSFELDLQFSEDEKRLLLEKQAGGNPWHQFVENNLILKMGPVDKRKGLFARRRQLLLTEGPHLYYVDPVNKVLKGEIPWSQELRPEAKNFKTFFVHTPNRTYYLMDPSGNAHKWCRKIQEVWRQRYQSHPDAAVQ

Usually IC50 stands for the point on the concentration scale where inhibition reaches its midpoint. `CC(=O)N(C)[C@H]1CC[C@H](CC(=O)Nc2cc(-c3ccccc3)c(-c3ccc(C4(N)CCC4)cc3)cn2)CC1` [AKT3i, N-(5-(4-(1-aminocyclobutyl)phenyl)-4-phenylpyridin-2-yl)-2-((1r,4r)-4-(N-methylacetamido)cyclohexyl) acetamide]: the IC50 was 13 nM.
